Data reported in US8530512B2, “Broad spectrum gram-positive antimicrobials and anthelmintics with efficacy against drug-resistant strains and Mycobacterium species” (priority 2004, dated 2013).
In brackets after ≈: the same amount, converted by molar mass. Like-named read-outs stand apart in the source and are kept apart here.

What was measured:
Bacillus cereus = assay: microbe, parasite or virus in culture; type: cell-based; conditions: for MIC: Bacillus cereus, per-compound listing, Example 6, read-out: MIC B. cereus; for MIC B. cereus, G+ (anthrax surrogate): Table 3
[1] = system: Staphylococcus aureus MRSA MC-1; assay: microbe, parasite or virus in culture; type: cell-based; conditions: Staphylococcus aureus, MRSA, read-out: MIC MRSA
M. smegmatis = assay: MIC assay; type: cell-based; conditions: Mycolicibacterium smegmatis, read-out: MIC M. smegmatis
C. elegans = assay: motility assay; type: in vivo; design: key to Movement score, 1/1600 / Movement score, 1/800 / Movement score, 1/400 / Movement score, 1/200 / Movement score, 1/100: normal (−); slow (+); very slow (++); not motile/paralyzed (+++); conditions: for Movement score, 1/100: dilution 1/100 of stock (10.24 μg/μL; SK-03-92 1.024 μg/μL); for Movement score, 1/100 / Movement score, 1/200 / Movement score, 1/400 / Movement score, 1/800 / Movement score, 1/1600: Ive 1 ng/μL in all wells; for Movement score, 1/200: dilution 1/200 of stock (10.24 μg/μL; SK-03-92 1.024 μg/μL); for Movement score, 1/400: dilution 1/400 of stock (10.24 μg/μL; SK-03-92 1.024 μg/μL); for Movement score, 1/800: dilution 1/800 of stock (10.24 μg/μL; SK-03-92 1.024 μg/μL); for Movement score, 1/1600: dilution 1/1600 of stock (10.24 μg/μL; SK-03-92 1.024 μg/μL), overnight 20° C.; for effect on worms at the lowest concentrations tested: at least triplicate
[2] = system: Staphylococcus aureus ATCC 29213; assay: microbe, parasite or virus in culture; type: cell-based; conditions: Staphylococcus aureus, ATCC29213; per-compound listing, Example 6; read-out: MIC S. aureus
[3] = system: Enterococcus faecium VRE 1; assay: organism not typed; type: cell-based; conditions: for MIC E. faecium VRE 1, G+: Table 3; for MIC: read-out: MIC VRE
Streptococcus pyogenes = assay: microbe, parasite or virus in culture; type: cell-based; conditions: for MIC: Streptococcus pyogenes, per-compound listing, Example 6, read-out: MIC S. pyogenes; for MIC S. pyogenes, G+: Table 3
C. elegans L1 larvae = assay: developmental assay; type: in vivo; design: key to Developmental score, 1/1600 / Developmental score, 1/800 / Developmental score, 1/400 / Developmental score, 1/200 / Developmental score, 1/100: dead (+++); distressed (++); slightly delayed (+); the same as M9-only untreated wells (−); conditions: for Developmental score, 1/100: dilution 1/100; for Developmental score, 1/100 / Developmental score, 1/200 / Developmental score, 1/400 / Developmental score, 1/800 / Developmental score, 1/1600: after four days, Ive 1 ng/μL in each well; for Developmental score, 1/200: dilution 1/200; for Developmental score, 1/400: dilution 1/400; for Developmental score, 1/800: dilution 1/800; for Developmental score, 1/1600: dilution 1/1600
[4] = per-compound listing, Example 6

Molecule	MIC (Bacillus cereus) [µg/mL]	MIC B. cereus, G+ (anthrax surrogate) (Bacillus cereus) [µg/mL]	MIC [1] [µg/mL]	MIC (M. smegmatis; [4]) [µg/mL]	Movement score, 1/100 (C. elegans)	Movement score, 1/200 (C. elegans)	Movement score, 1/400 (C. elegans)	Movement score, 1/800 (C. elegans)	Movement score, 1/1600 (C. elegans)	MIC [2] [µg/mL]	MIC E. faecium VRE 1, G+ [3] [µg/mL]	MIC [3] [µg/mL]	MIC (Streptococcus pyogenes) [µg/mL]	MIC S. pyogenes, G+ (Streptococcus pyogenes) [µg/mL]	Developmental score, 1/100 (C. elegans L1 larvae)	Developmental score, 1/200 (C. elegans L1 larvae)	Developmental score, 1/400 (C. elegans L1 larvae)	Developmental score, 1/800 (C. elegans L1 larvae)	Developmental score, 1/1600 (C. elegans L1 larvae)	further results
COc1cc(O)cc(/C=C/Oc2ccccc2)c1 [CL-1, Phenyl-E-(3-hydroxy-5-methoxy)-styryl ether]	32 (≈ 132 µM)	16 (≈ 66 µM)	64 (≈ 264 µM)	128 (≈ 528 µM)	+++	+++	−	−	−	32 (≈ 132 µM)	64 (≈ 264 µM)	64 (≈ 264 µM)	32 (≈ 132 µM)	32 (≈ 132 µM)						
COc1cc(O)cc(O/C=C/c2ccccc2)c1 [CL-2, Phenyl-E-(3-hydroxy-5methoxy)-styryl ether]	64 (≈ 264 µM)	64 (≈ 264 µM)	32 (≈ 132 µM)	128 (≈ 528 µM)	+++	+++	+++	−	−	32 (≈ 132 µM)	32 (≈ 132 µM)	32 (≈ 132 µM)	16 (≈ 66 µM)	16 (≈ 66 µM)						
COc1cc(O)cc(/C=C/Sc2ccccc2)c1 [CL-4, Phenyl-E-(3-hydroxy-5methoxy)-styryl thioether]	16 (≈ 61.9 µM)	16 (≈ 61.9 µM)	32 (≈ 124 µM)	128 (≈ 495 µM)	+++	+++	++	+	−	16 (≈ 61.9 µM)	32 (≈ 124 µM)	32 (≈ 124 µM)	8 (≈ 31 µM)	8 (≈ 31 µM)	+++	+++	+++	−	−	
COc1cc(O)cc(/C=C/c2ccsc2)c1 [CL-5, (E)-3-[2-(3-Hydroxy-5-methoxy)-vinyl]thiophene]	32 (≈ 138 µM)	32 (≈ 138 µM)	32 (≈ 138 µM)	128 (≈ 551 µM)	+++	+++	+++	+++	++	16 (≈ 68.9 µM)	32 (≈ 138 µM)	32 (≈ 138 µM)	4 (≈ 17.2 µM)	4 (≈ 17.2 µM)	+++	+++	+++	+++	+	effect on worms at the lowest concentration tested (most active) (C. elegans): severe distress; effect on worms at the lowest concentrations tested (C. elegans): reduced motility, paralysis, or death; effect at the two highest dilutions (C. elegans L1 larvae): death or delays in development
COc1cc(O)cc(/C=C/c2cccs2)c1 [CL-6, (E)-2-[2-(3-Hydroxy-5-methoxy)-vinyl]thiophene]	32 (≈ 138 µM)	32 (≈ 138 µM)	32 (≈ 138 µM)	64 (≈ 276 µM)	+++	+++	+++	−	−	32 (≈ 138 µM)	64 (≈ 276 µM)	64 (≈ 276 µM)	32 (≈ 138 µM)	32 (≈ 138 µM)						
COc1cc(O)cc(/C=C/Oc2ccccc2C)c1 [Compound A11, 2-Methylphenyl-E-(3-hydroxy-5-methoxy)-styryl ether]	32 (≈ 125 µM)	64 (≈ 250 µM)	32 (≈ 125 µM)	> 128						16 (≈ 62.4 µM)	32 (≈ 125 µM)	32 (≈ 125 µM)	32 (≈ 125 µM)	32 (≈ 125 µM)						
COc1cc(O)cc(/C=C/c2ccc3ccccc3c2)c1 [SK-03-28F2]	16 (≈ 57.9 µM)			256 (≈ 926 µM)	+++	+++	++	++	−	8 (≈ 29 µM)					+++	+++	−	−	−	effect on worms at the lowest concentrations tested (C. elegans): reduced motility, paralysis, or death
Oc1cc(O)cc(/C=C/c2ccc3ccccc3c2)c1 [SK-03-28F3]	8 (≈ 30.5 µM)		256 (≈ 976 µM)	> 512						8 (≈ 30.5 µM)										
Oc1cc(O)cc(/C=C/c2csc3ccccc23)c1 [SK-03-44F2]	256 (≈ 954 µM)		> 512							32 (≈ 119 µM)										MIC (M. smegmatis): > 512 µg/mL
COc1cc(O)cc(/C=C/SC2CCCCC2)c1 [SK-04-50]					++	+	+	+	+						+++	+	−	−	−	
CCOC(=O)/C=C\Sc1nc2ccccc2s1 [SK-04-59F1]					−	−	−	−	−											
COc1cc(O)cc(/C=C/Sc2ccccc2C(C)C)c1 [SK-05-01]	16 (≈ 53.3 µM)			256 (≈ 852 µM)	+	−	−	−	−	16 (≈ 53.3 µM)										
COc1cc(O)cc(/C=C/Sc2ccc(C(C)(C)C)cc2)c1 [SK-05-04]	8 (≈ 25.4 µM)			128 (≈ 407 µM)						16 (≈ 50.9 µM)										
COc1cc(O)cc(/C=C/Sc2cccc3ccccc23)c1 [SK-05-16]	4 (≈ 13 µM)			128 (≈ 415 µM)	++	++	++	+	−	4 (≈ 13 µM)					++	−	−	−	−	
COc1cc(O)cc(/C=C/Sc2ccc3ccccc3c2)c1 [SK-05-17]	4 (≈ 13 µM)			128 (≈ 415 µM)	++	++	++	++	++	4 (≈ 13 µM)					+++	++	++	−	−	effect on worms at the lowest concentration tested (most active) (C. elegans): severe distress; effect on worms at the lowest concentrations tested (C. elegans): reduced motility, paralysis, or death
CCC(C)CS/C=C/c1cc(O)cc(OC)c1 (stereo not drawn) [SK-05-22]	16 (≈ 63.4 µM)			128 (≈ 507 µM)	+++	+++	++	+	−	16 (≈ 63.4 µM)					+++	+++	+++	+	−	effect at the two highest dilutions (C. elegans L1 larvae): death or delays in development
ivermectin [reference compound]					+++	+++	+++	+++	+++						+++	+++	+++	++	++	animals affected (C. elegans; 0.25 ng/μL, overnight): Over 40%; animals paralyzed (C. elegans; 0.5 ng/μL): more than 90%; paralysis (C. elegans; 0.5 ng/μl, FIG. 9): Most worms were paralyzed; paralysis (C. elegans; 1 ng/μL): All worms were paralyzed; lowest effective concentration (C. elegans; molar equivalent of 0.25 ng/μL): ~140 nM; lowest effective concentration (C. elegans; overnight, soaking, mixed population): 0.25 ng/µL
